Data taken from US12679878B2, “CRF2 receptor agonists and their use in therapy” (SANOFI, priority 2020, dated 2026).
Like-named read-outs stand apart in the source and are kept apart here. Starred links: 1 amine or outer side, 2 acyl side, 3 side chain; linkers in the order of their positions; H or OH if unused. Non-standard residues stand in square brackets, D forms with d. Residues, ends and D or L forms follow the SMILES beside them. Groups on a side chain read outwards from the residue. *: point of attachment. C18 diacid = O=C(O)CCCCCCCCCCCCCCCCC(=O)*; γGlu = O=C(O)[C@H](CCC(=O)[*:2])N[*:1]; Palmitoyl = CCCCCCCCCCCCCCCC(=O)*; AEEA = NCCOCCOCC(=O)O; Aib = CC(C)(N)C(=O)O

Experiments:
[1] = target: T1, CRF1R receptor (Homo sapiens, UniProt P34998); assay: cAMP activity at anti-target CRF1R, CRF1R-overexpression CHO cell line (Example 9); type: cell-based; settings: CRF1R-overexpression CHO cell line; for Emax: read-out: Emax (%)
T1 construct: host or cells: CHO-K1 clone 2
T1 sequence (P34998 24-415): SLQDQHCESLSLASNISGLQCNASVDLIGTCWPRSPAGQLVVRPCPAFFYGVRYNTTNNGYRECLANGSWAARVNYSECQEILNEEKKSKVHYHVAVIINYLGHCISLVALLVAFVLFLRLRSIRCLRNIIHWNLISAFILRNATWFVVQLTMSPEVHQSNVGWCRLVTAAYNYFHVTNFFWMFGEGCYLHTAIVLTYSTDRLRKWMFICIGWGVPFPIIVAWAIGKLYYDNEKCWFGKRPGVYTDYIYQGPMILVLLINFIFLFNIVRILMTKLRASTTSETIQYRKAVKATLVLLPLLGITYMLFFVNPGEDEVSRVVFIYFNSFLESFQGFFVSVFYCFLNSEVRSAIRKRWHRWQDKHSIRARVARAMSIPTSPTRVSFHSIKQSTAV
Experimental: Cells were grown in a T175 culture flask placed at 37° C. to near confluence in medium (DMEM/10% FBS) and collected in 2 ml vials in cell culture medium containing 10% DMSO in a concentration of 10-50 million cells/ml. Each vial contained 1.8 ml cells. The vials were slowly frozen to −80° C. in isopropanol and then transferred in liquid nitrogen for storage. Prior to use, frozen cells were thawed quickly at 37° C. and washed (5 min at 900 rpm) with 20 ml cell buffer (1×HBSS; 20 mM HEPES; 0% or 0.1% HSA). Cells were resuspended in assay buffer (cell buffer plus 2 mM IBMX) and adjusted to a cell density of 1 million cells/ml. For measurement, 5 μl cells (final […]) and 5 μL of test compound were added to a 384-well plate, followed by incubation for 30 minutes at room temperature.
The CAMP content of cells was determined using a kit from Cisbio Corp. (cat. no. 62AM4PEC) based on HTRF (Homogenous Time Resolved Fluorescence). […] The percent activity value (E %) was calculated by setting 1000 nM of urocortin 2 (UCN2) as 100%.
A CRF1R-overexpression CHO cell line was used in this study.

[2] = target: T2, human CRF2α receptor (Homo sapiens, UniProt Q13324); assay: cAMP agonism at human CRF2 α receptor in TeloHEAC cells (Example 7); type: cell-based; settings: cAMP HTRF, TeloHEAC cells stably expressing human CRF2 α
T2 construct: expressed in transfected cells; host or cells: TeloHEAC
T2 sequence (Q13324 1-411): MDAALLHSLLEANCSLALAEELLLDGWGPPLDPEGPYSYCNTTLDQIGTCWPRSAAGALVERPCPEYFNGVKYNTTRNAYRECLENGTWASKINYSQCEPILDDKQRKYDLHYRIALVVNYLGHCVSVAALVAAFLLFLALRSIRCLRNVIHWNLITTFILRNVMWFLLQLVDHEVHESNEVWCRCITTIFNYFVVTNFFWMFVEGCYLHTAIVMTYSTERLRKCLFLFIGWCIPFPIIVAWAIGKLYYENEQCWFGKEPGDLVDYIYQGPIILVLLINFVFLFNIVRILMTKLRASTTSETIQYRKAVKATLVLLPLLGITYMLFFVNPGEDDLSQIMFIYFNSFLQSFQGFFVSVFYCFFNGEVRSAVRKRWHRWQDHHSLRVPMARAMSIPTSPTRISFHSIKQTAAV
Procedure, shortened: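 HTRF ratio 665/620 nm, read 1 h after lysis reagents, reports cAMP. Cells: thawed stocks, 2000/well, 30 min RT with compound in HBSS, 20 mM HEPES, 0 or 0.1% HSA, 2 mM IBMX. Activity normalised to UCN2 1000 nM = 100%; EC50 from half-maximal activation.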

[3] = 0% HSA, read-out: EC50 [nM], 0% HSA

| Emax [1] [%] | EC50 [2, 3] [nM] | EC50 ([1]; 0% HSA) [nM] | EC50 ([2]; 0.1% HSA, read-out: EC50 [nM], 0.1% HSA) [nM] | SMILES |
| --- | --- | --- | --- | --- |
| 59.2 | 0.02 |  |  | CCCCCCCCCCCCCCCC(=O)N[C@@H](CCC(=O)NCCCC[C@H](NC(=O)[C@H](CC(C)C)NC(=O)[C@H](CCCCN)NC(=O)[C@@H](NC(=O)[C@@H]1CCCN1C(=O)[C@H](NC(=O)[C@H](CC(=O)O)NC(=O)[C@H](CC(C)C)NC(=O)[C@H](CO)NC(=O)[C@H](CC(C)C)NC(=O)[C@@H](NC(=O)[C@@H](N)[C@@H](C)CC)C(C)C)C(C)C)[C@@H](C)O)C(=O)N[C@@H](CCC(N)=O)C(=O)N[C@@H](CCCCN)C(=O)N[C@@H](CC(C)C)C(=O)N[C@@H](CC(C)C)C(=O)N[C@@H](CCCCN)C(=O)N[C@@H](CCC(N)=O)C(=O)N[C@@H](CCC(=O)O)C(=O)N[C@@H](CCCNC(=N)N)C(=O)N[C@@H](CCC(N)=O)C(=O)N[C@@H](CCCNC(=N)N)C(=O)N[C@@H](CCCCN)C(=O)N[C@@H](CCC(=O)O)C(=O)NC(C)(C)C(=O)N[C@@H](CCC(=O)O)C(=O)N[C@@H](CCC(N)=O)C(=O)N[C@@H](C)C(=O)N[C@@H](CCC(=O)O)C(=O)N[C@@H](CCCCN)C(=O)N[C@@H](CC(N)=O)C(=O)N[C@@H](CCCCN)C(=O)N[C@@H](CCCNC(=N)N)C(=O)N[C@H](C(=O)N[C@@H](CC(C)C)C(=O)N[C@@H](CCC(=O)O)C(=O)N[C@@H](CCCNC(=N)N)C(=O)N[C@H](C(N)=O)C(C)C)[C@@H](C)CC)C(=O)O [compound 21] (H-IVLSLD[dV]PTKLK([γGlu-Palmitoyl])QKLLKQERQRKE[Aib]EQAEKNKRILERV-NH2; N-terminus assumed) |
| 20.8 | 8.56 | > 1000 | 28.9 | CC[C@H](C)[C@H](NC(C)=O)C(=O)N[C@H](C(=O)N[C@@H](CC(C)C)C(=O)N[C@@H](CO)C(=O)N[C@@H](CC(C)C)C(=O)N[C@@H](CC(=O)O)C(=O)N[C@@H](C(=O)N1CCC[C@H]1C(=O)N[C@H](C(=O)N[C@@H](CCCCN)C(=O)N[C@@H](CC(C)C)C(=O)N[C@@H](CCCCNC(=O)COCCOCCNC(=O)COCCOCCNC(=O)CC[C@H](NC(=O)CCCCCCCCCCCCCCCCC(=O)O)C(=O)O)C(=O)N[C@@H](CCC(N)=O)C(=O)N[C@H](C(=O)N[C@@H](CC(C)C)C(=O)N[C@@H](CC(C)C)C(=O)N[C@@H](CCC(=O)O)C(=O)N[C@@H](CCC(N)=O)C(=O)N[C@@H](CCC(=O)O)C(=O)N[C@@H](CCCNC(=N)N)C(=O)N[C@@H](CCC(N)=O)C(=O)N[C@@H](CCC(=O)O)C(=O)NC(C)(C)C(=O)N[C@@H](CCC(=O)O)C(=O)N[C@@H](CCCNC(=N)N)C(=O)N[C@@H](CCC(=O)O)C(=O)N[C@@H](CCC(N)=O)C(=O)N[C@@H](C)C(=O)N[C@@H](CCC(=O)O)C(=O)N[C@H](C(=O)N[C@@H](CC(N)=O)C(=O)N[C@@H](CCCCN)C(=O)N[C@@H](CCC(N)=O)C(=O)N[C@H](C(=O)N[C@@H](CC(C)C)C(=O)N[C@@H](CCC(=O)O)C(=O)N[C@@H](CCC(N)=O)C(=O)N[C@H](C(N)=O)C(C)C)[C@@H](C)CC)[C@@H](C)O)[C@@H](C)CC)[C@@H](C)CC)C(C)C)C(C)C [compound 160] (Ac-IVLSLD[dV]PIKLK([AEEA-AEEA-γGlu-C18 diacid])QILLEQERQE[Aib]EREQAETNKQILEQV-NH2) |
